We go through five compounds from paper PMC11239830, “Synthetic macrolides overcoming MLSBK-resistant pathogens” (Cell Discovery, 2024).

Holding throughout (test): MIC, broth microdilution
For orientation: Dilution methods test growth across graded concentrations, often in twofold steps.

One test relates to S. pneumoniae. The class given is cell-based, Streptococcus pneumoniae. The essentials:
(§1)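 Incubation ran for 16–20 h at 37 °C after setup per Clinical and Laboratory Standards Institute microdilution procedure. Growth was then observed to assign the MIC. Assays were replicated at least three times.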

Another test relates to S. pyogenes. The class given is cell-based, Streptococcus pyogenes. As to conditions: S. pyogenes 12-206, c-ermTR. The procedure, abridged: as §1
Another test has as its system H. influenzae. The format is cell-based, Haemophilus influenzae. The procedure, abridged:
as §1

The test system of another test is M. catarrhalis. The class given is cell-based, Moraxella catarrhalis. As to conditions: M. catarrhalis 13L332, Ery-S. The procedure: MICs were determined by the microdilution method according to the Clinical and Laboratory Standards Institute guidelines. Briefly, the stock solution of compounds and the reference antibiotics were diluted 2-fold in sterile 96-well plates with cation-adjusted Mueller-Hinton broth, and mixed with CAMHB-containing bacteria to give a final inoculum of 5 × 10^5 CFU/mL for broth microdilution experiments. […] Finally, the 96-well plates were incubated at 37 °C for 16–20 h to observe and record the results. The lowest concentration at which no bacterial growth could be observed visually was identified as the MICs of the compounds. The assay for MICs was replicated at least three times.

Setting [1] is: Streptococcus pneumoniae, ATCC49619, S. pneumoniae ATCC49619, Ery-S, read-out: MIC.
[2] abbreviates: Streptococcus pneumoniae, S. pneumoniae 05O173, c-ermB, mef, read-out: MIC.
Where [3] appears, read: Streptococcus pneumoniae, S. pneumoniae 07P390, c-ermB, read-out: MIC.
[4] abbreviates: Streptococcus pyogenes, read-out: MIC.
The mark [5] stands for this setting: Haemophilus influenzae, ATCC49247, H. influenzae ATCC49247, Azi-S, read-out: MIC.
Setting [6] is: Moraxella catarrhalis, read-out: MIC.

Converted amounts (≈) assume the structure as drawn. Where two headings read alike, the source gives them in different places.

Take `CC[C@H]1OC(=O)[C@H](C)[C@@H](OC(=O)NCCCCCCC#Cc2ccc3c(=O)c(C(=O)O)cn(C)c3c2)[C@H](C)[C@@H](O[C@@H]2O[C@H](C)C[C@H](N(C)C)[C@H]2O)[C@](C)(O)C[C@@H](C)CN(C)[C@H](C)[C@@H](O)[C@]1(C)O` [106g]: the MIC is 0.25 µg/mL (≈ 0.265 µM) in the test on S. pneumoniae (setting [1]); 128 µg/mL (≈ 136 µM) in the test on S. pneumoniae (setting [2]); 4 µg/mL (≈ 4.24 µM) in the test with S. pneumoniae (setting [3]); 4 µg/mL (≈ 4.24 µM) in the test on S. pyogenes (setting [4]); 8 µg/mL (≈ 8.48 µM) in the test on H. influenzae (setting [5]); 0.5 µg/mL (≈ 0.53 µM) with M. catarrhalis (setting [6]).
Consider `CC[C@H]1OC(=O)[C@H](C)[C@@H](OC(=O)NCCCOCCC#Cc2ccc3c(=O)c(C(=O)O)cn(C4CC4)c3c2)[C@H](C)[C@@H](O[C@@H]2O[C@H](C)C[C@H](N(C)C)[C@H]2O)[C@](C)(OC)C[C@@H](C)C(=O)[C@H](C)[C@H]2NC(=O)O[C@@]21C` [95c], for which the MIC with S. pneumoniae (setting [1]) was 0.03 µg/mL (≈ 0.0301 µM); in the test with S. pneumoniae (setting [2]), 4 µg/mL (≈ 4.02 µM); in the test on S. pneumoniae (setting [3]) it was 0.25 µg/mL (≈ 0.251 µM); in the test with S. pyogenes (setting [4]), 0.5 µg/mL (≈ 0.502 µM); with H. influenzae (setting [5]) it was 2 µg/mL (≈ 2.01 µM); in the test on M. catarrhalis (setting [6]), 0.5 µg/mL (≈ 0.502 µM).
Turning to `CC[C@H]1OC(=O)[C@H](C)[C@@H](OC(=O)NCCCOCCC#Cc2ccc3c(=O)c(C(=O)O)cn(CC)c3c2)[C@H](C)[C@@H](O[C@@H]2O[C@H](C)C[C@H](N(C)C)[C@H]2O)[C@](C)(OC)C[C@@H](C)C(=O)[C@H](C)[C@H]2NC(=O)O[C@@]21C` [95f], the MIC was at most 0.008 µg/mL with S. pneumoniae (setting [1]); 4 µg/mL (≈ 4.07 µM) with S. pneumoniae (setting [2]); 0.12 µg/mL (≈ 0.122 µM) in the test on S. pneumoniae (setting [3]); 0.5 µg/mL (≈ 0.509 µM) with S. pyogenes (setting [4]); 0.5 µg/mL (≈ 0.509 µM) in the test on M. catarrhalis (setting [6]).
`CC[C@H]1OC(=O)[C@H](C)[C@@H](OC(=O)NCCCCCCCC#Cc2ccc3c(=O)c(C(=O)O)cn(C)c3c2)[C@H](C)[C@@H](O[C@@H]2O[C@H](C)C[C@H](N(C)C)[C@H]2O)[C@](C)(OC)C[C@@H](C)C(=O)[C@H](C)[C@H]2NC(=O)O[C@@]21C` [89g]: the MIC in the test on S. pneumoniae (setting [1]) was at most 0.008 µg/mL; with S. pneumoniae (setting [2]), 16 µg/mL (≈ 16.3 µM); with S. pneumoniae (setting [3]), 0.25 µg/mL (≈ 0.255 µM); with S. pyogenes (setting [4]) it was 1 µg/mL (≈ 1.02 µM); in the test on H. influenzae (setting [5]) it was 8 µg/mL (≈ 8.15 µM); in the test on M. catarrhalis (setting [6]), 1 µg/mL (≈ 1.02 µM).
Take `CC[C@H]1OC(=O)[C@H](C)[C@@H](OC(=O)NCCCCCCCCc2ccc3c(=O)c(C(=O)O)cn(C)c3c2)[C@H](C)[C@@H](O[C@@H]2O[C@H](C)C[C@H](N(C)C)[C@H]2O)[C@](C)(OC)C[C@@H](C)C(=O)[C@H](C)[C@H]2NC(=O)O[C@@]21C` [90g]: the MIC against S. pneumoniae (S. pneumoniae 05O173, c-ermB, mef) is 8 µg/mL (≈ 8.24 µM); in the test with S. pneumoniae (S. pneumoniae 07P390, c-ermB), 0.03 µg/mL (≈ 0.0309 µM); in the test on S. pneumoniae (S. pneumoniae ATCC49619, Ery-S), at most 0.008 µg/mL; in the test with S. pyogenes it was 0.12 µg/mL (≈ 0.124 µM); in the test with H. influenzae (H. influenzae ATCC49247, Azi-S) it was 4 µg/mL (≈ 4.12 µM); against M. catarrhalis it was 2 µg/mL (≈ 2.06 µM).
